Results: patent publication US5053508A, “Fused heterotricyclic imides with psychotropic activity and intermedrates thereof” (American Home Products Corporation, priority 1990, dated 1991)

Legend:
[1] = system: Male CD rats; test: conditioned avoidance (shelf-jump response) test; type: in vivo
Source text: A test designed to determine the potential antipsychotic activity of the compounds of the invention is the conditioned avoidance (shelf-jump response) test.
Male CD rats (Charles River) maintained at approximately 400-450 gm body weight are used. […] A moveable wall, controlled by a motor, determines whether the rat has access to the shelf at any time during the experiment. The experimental chamber also contains a house light and sonalert. A steel grid floor in the main chamber is wired for presentation of electric shock. Each trial consists of a fifteen-second warning tone (conditioned stimulus), continuing for an additional fifteen seconds accompanied by electric shock (unconditioned stimulus). A response (jumping onto the exposed shelf of the upper chamber) occurring during the initial fifteen-second warning tone is considered an avoidance response, while a response occurring during shock delivery is considered an escape response. Trials are presented on a fixed interval schedule of one minute. The session consists of thirty-six trials. Animals are run twice weekly with control sessions always preceding a drug run, and with at least one day intervening. Compounds are administered i.p. or p.o. at appropriate pre-treatment times to a minimum of five rats at each dose level over a range of doses.
The following experimental parameters are recorded by computer: (1) the number of avoidance responses, (2) the number of escape responses, and (3) the number of trials in which no response occurred.
Response counts are summed over all subjects at a given dose. […] This number is expressed as a percentage of the total trials. Control performance is arbitrarily assigned a value of 100% for avoidance responding and the dose calculated to produce a 50% block in avoidance responding (AB50) is obtained from a dose-effect regression line fitted by the method of least squares. Potential antipsychotic compounds suppress avoidance responding and increase escape responding.

[2] = system: dopamine receptor; details: i.p.; result in words

Compound	Active at ([1]; i.p.)	Active at ([1]; p.o.)	activity in the apomorphine-induced stereotyped behavior assay [2]
Cl.O=C1C2C3CS(=O)(=O)CC3C2C(=O)N1CCCCN1CCN(c2cncc(Cl)n2)CC1 (stereo not drawn) [Example 1, 5-[4-[4-(6-chloro-2-pyrazinyl)-1-piperazinyl]butyl]tetrahydro-1H-thieno[3',4':3,4]cyclobuta[1,2-c]pyrrole-4,6(3H,5H)-dione 2,2 dioxide hydrochloride]	40 mg/kg	40 mg/kg	–
6-[4-[4-2-pyrimidinyl)-1-piperazinyl]butyl]-3a,4,4a,7a,8,8a-hexahydro-3-methyl-4,8-methano-5H-pyrrolo[3,4-f]-1,2-benzisoxazole-5,7(6H)-dione, dihydrochloride, hydrate [Example 8]	40 mg/kg	–	–
CC1=NOC2C3CC(C12)C1C(=O)N(CCCCN2CCN(c4cnccn4)CC2)C(=O)C31 (stereo not drawn) [Example 7, 6-[4-[4-(2-pyrazinyl)-1-piperazinyl]butyl]-3a,4,4a,7a,8,8a-hexahydro-3-methyl-4,8-methano-5H-pyrrolo[3,4-f]-1,2-benzisoxazole-5,7(6H)-dione, ethanedioate (1:1), hemiethanolate]	40 mg/kg	–	–
CC1=NOC2C3CCC(C12)C1C(=O)N(CCCCN2CCN(c4cnccn4)CC2)C(=O)C31.O=C(O)C(=O)O (stereo not drawn) [Example 11, 6-[4-[4-(2-pyrazinyl)-1-piperazinyl]butyl]-3a,4,4a,7a,8,8a-hexahydro-3-methyl-4,8-ethano-5H-pyrrolo[3,4-f]-1,2-benzisoxazole-5,7(6H)-dione, ethanedioate (1:1)]	40 mg/kg	–	–
Cl.O=C1C2C3CS(=O)(=O)CC3C2C(=O)N1CCCCN1CCN(c2nccnc2Cl)CC1 (stereo not drawn) [Example 2, 5-[4-[4-(3-chloro-2-pyrazinyl)-1-piperazinyl]butyl]tetrahydro-1H-thieno[3',4':3,4]cyclobuta[1,2-c]pyrrole-4,6(3H,5H)dione 2,2-dioxide, hydrochloride]	40 mg/kg	–	–
CC1=NOC2C3CCC(C12)C1C(=O)N(CCCCN2CCN(c4ncccn4)CC2)C(=O)C31.O=C(O)C(=O)O (stereo not drawn) [Example 10, 6-[4-[4-(2-pyrimidinyl)-1-piperazinyl]butyl]-3a,4,4a,7a,8,8a-hexahydro-3-methyl-4,8-ethano-5H-pyrrolo[3,4-f]-1,2-benzisoxazole-5,7(6H)-dione, ethanedioate (1:1)]	40 mg/kg	–	–
CC1=NOC2C3CC(C12)C1C(=O)N(CCCCN2CCN(c4cncc(Cl)n4)CC2)C(=O)C31.O=C(O)C(=O)O (stereo not drawn) [Example 6, 6-[4-[4-(6-chloro-2-pyrazinyl)-1-piperazinyl]butyl]-3a,4,4a,7a,8,8a-hexahydro-3-methyl-4,8-methano-5H-pyrrolo[3,4-f]-1,2-benzisoxazole-5,7(6H)-dione, ethanedioate (1:1)]	40 mg/kg	–	–
O=C1CC2(CCCC2)CC(=O)N1CCCCN1CCN(c2ncccn2)CC1 [Buspirone, 8-[4-[4-(2-pyrimidinyl)-1-piperazinyl]butyl]-8-azaspiro[4.5]decane-7,9-dione]	–	–	inactive
